Experimental data reported in BindingDB's records for doi:10.1016/j.bmc.2012.11.021 (University of Bonn, 2012).

Experiments:
[1] = molecular target: T1, Adenosine receptor A2b (Homo sapiens, UniProt P29275); assay: Displacement of [3H]PSB-603 from human recombinant adenosine A2B receptor expressed in CHO cells after 75 mins by liquid scintillation counting analysis
T1 sequence (P29275 whole entry): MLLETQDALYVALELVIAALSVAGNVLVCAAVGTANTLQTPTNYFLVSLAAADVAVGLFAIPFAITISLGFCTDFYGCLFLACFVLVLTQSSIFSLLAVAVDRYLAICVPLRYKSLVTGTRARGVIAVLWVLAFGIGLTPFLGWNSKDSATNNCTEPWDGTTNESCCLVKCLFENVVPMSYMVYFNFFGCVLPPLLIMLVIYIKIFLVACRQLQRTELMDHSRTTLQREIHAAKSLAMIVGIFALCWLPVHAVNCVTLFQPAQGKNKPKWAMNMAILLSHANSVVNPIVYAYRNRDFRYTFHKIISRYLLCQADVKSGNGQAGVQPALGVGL

[2] = molecular target: Adenosine receptor A2a (Rattus norvegicus, UniProt P30543); assay: Displacement of [3H]CGS21680 from adenosine A2A receptor in rat brain striatal membrane after 60 mins by liquid scintillation counting analysis
Sequence of Adenosine receptor A2a (P30543 whole entry): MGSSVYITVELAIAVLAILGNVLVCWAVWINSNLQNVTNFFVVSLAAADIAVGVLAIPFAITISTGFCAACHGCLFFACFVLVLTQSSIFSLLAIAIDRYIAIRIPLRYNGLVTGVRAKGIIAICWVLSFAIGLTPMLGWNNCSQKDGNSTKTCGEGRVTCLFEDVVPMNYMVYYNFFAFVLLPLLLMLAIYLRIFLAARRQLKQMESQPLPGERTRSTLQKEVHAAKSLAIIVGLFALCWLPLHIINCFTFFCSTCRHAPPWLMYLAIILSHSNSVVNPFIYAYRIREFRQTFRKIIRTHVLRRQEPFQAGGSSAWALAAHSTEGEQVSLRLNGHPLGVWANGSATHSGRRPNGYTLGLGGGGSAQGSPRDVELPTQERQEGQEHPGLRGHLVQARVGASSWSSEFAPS

SMILES | Ki [1] | Ki [2]
CN(NC(CO)C(=O)[C@@H](O)[C@@H](O)CO)c1nc(N)c2ncn([C@@H]3O[C@H](CO)[C@@H](O)[C@H]3O)c2n1 (some centres not stated) | > 10 µM | > 1 µM
CN(NCC(=O)[C@@H](O)[C@@H](O)CO)c1nc(N)c2ncn([C@@H]3O[C@H](CO)[C@@H](O)[C@H]3O)c2n1 | > 10 µM | > 1 µM
CN(NCC(=O)[C@H](O)[C@@H](O)[C@@H](O)CO)c1nc(N)c2ncn([C@@H]3O[C@H](CO)[C@@H](O)[C@H]3O)c2n1 | > 10 µM | > 1 µM
CN(NCC(=O)[C@@H](O)[C@@H](O)[C@H](O)CO)c1nc(N)c2ncn([C@@H]3O[C@H](CO)[C@@H](O)[C@H]3O)c2n1 | > 10 µM | > 1 µM
Nc1nc(NNC(CO)C(=O)[C@@H](O)[C@@H](O)CO)nc2c1ncn2[C@@H]1O[C@H](CO)[C@@H](O)[C@H]1O (some centres not stated) | > 10 µM | > 1 µM
Nc1nc(NNCC(=O)[C@@H](O)[C@@H](O)CO)nc2c1ncn2[C@@H]1O[C@H](CO)[C@@H](O)[C@H]1O | > 10 µM | > 1 µM
